# From patent US9073940B2, “Tricyclic pyrazol amine derivatives” (MERCK SERONO SA, priority 2009, dated 2015)
# Counter-ions that a name gives are not always drawn. Like-named read-outs stand apart in the source and are kept apart here.
# How the values were obtained:
# [1] = system: AKT phosphorylation (p-AKT Ser 473) in Ramos B-lymphocyte cell line; assay: Mechanistic on-target cell assay: flow cytometry of AKT phosphorylation after anti-human IGM stimulation; format: cell-based
# Method: Mechanistic-On Target Cell Assay
# The reaction was stopped by fixing the cells with Paraformaldehyde 4% (final) for 10 minutes at room temperature. Cells were washed once with Phosphate Buffer Saline (PBS), permabilized in PBS-Triton X-100 0.2% for 15 minutes at room temperature washed twice with PBS and once with PBS-4% serum. […] Cells were washed twice in PBS and resuspended in PBS. The cell suspension was passed on a FC500 flow cytometer (Beckman Coulter), gating on the IGM positive cells and measuring the AKT phosphorylation.
# [2] = system: 4 PI3K isoforms (Human recombinant GST-PI3K); assay: PI3K scintillation proximity assay, best IC50 obtained with the four isoforms (alpha, beta, delta, gamma); format: biochemical; conditions: best IC50 obtained with the four isoforms of PI3K; read-out: Best potency measured on the 4 PI3K isoforms
# Class I PI3-kinases = conditions: each of the Class I PI3-kinases, cited from earlier work
# CK2 protein kinase = CK2 protein kinase (Homo sapiens (Human), UniProt P68400); conditions: cited from earlier work
# Sequence of CK2 protein kinase (P68400 whole entry): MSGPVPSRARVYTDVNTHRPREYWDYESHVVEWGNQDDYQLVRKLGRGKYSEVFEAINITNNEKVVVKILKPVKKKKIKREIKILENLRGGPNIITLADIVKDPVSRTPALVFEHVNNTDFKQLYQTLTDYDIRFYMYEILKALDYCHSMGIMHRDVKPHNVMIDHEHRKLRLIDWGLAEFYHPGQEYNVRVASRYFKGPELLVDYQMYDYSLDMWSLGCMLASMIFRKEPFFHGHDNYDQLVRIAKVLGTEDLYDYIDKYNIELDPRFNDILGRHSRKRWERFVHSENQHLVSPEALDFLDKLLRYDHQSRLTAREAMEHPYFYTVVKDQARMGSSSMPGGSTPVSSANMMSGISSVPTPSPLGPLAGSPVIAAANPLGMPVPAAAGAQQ
Compound,IC50 [1] [nM],IC50 [2] [nM],IC50 (Class I PI3-kinases; read-out: IC50 against each of these PI3-kinases) [nM],IC50 (CK2 protein kinase) [nM],IC50 (Class I PI3-kinases; read-out: IC50 against each of the various Class I PI3-kinases) [nM]
"3-(morpholin-4-ylcarbonyl)-1-[1-(2-morpholin-4-ylethyl)piperidin-3-yl]-1,4-dihydrothiochromeno[4,3-c]pyrazole 5,5-dioxide [Example 345]",68,16,–,–,–
"COc1cccc2c1S(=O)(=O)Cc1c(C(=O)N3CCOCC3)nn(-c3ccccc3)c1-2 [Example 1, 6-methoxy-3-(morpholin-4-ylcarbonyl)-1-phenyl-1,4-dihydrothiochromeno[4,3-c]pyrazole 5,5-dioxide]",570,459,–,–,–
"Cc1ccc(-n2nc(C(=O)N3CCOCC3)c3c2-c2ccccc2S(=O)(=O)C3)cc1 [Example 7, 1-(4-methylphenyl)-3-(morpholin-4-ylcarbonyl)-1,4-dihydrothiochromeno[4,3-c]pyrazole 5,5-dioxide]",976,690,–,–,–
"O=C(c1nn(C2CCCCC2)c2c1CS(=O)(=O)c1ccccc1-2)N1CCOCC1 [Example 12, 1-cyclohexyl-3-(morpholin-4-ylcarbonyl)-1,4-dihydrothiochromeno[4,3-c]pyrazole 5,5-dioxide]",167,136,–,–,–
"O=C(c1nn(-c2ccccc2)c2c1CS(=O)(=O)c1c(F)cccc1-2)N1CCOCC1 [Example 15, 6-fluoro-3-(morpholin-4-ylcarbonyl)-1-phenyl-1,4-dihydrothiochromeno[4,3-c]pyrazole 5,5-dioxide]",364,424,–,–,–
"O=C(c1nn(-c2ccccc2)c2c1CS(=O)(=O)c1ccccc1-2)N1CCOCC1 [Example 33, 3-(morpholin-4-ylcarbonyl)-1-phenyl-1,4-dihydrothiochromeno[4,3-c]pyrazole 5,5-dioxide]",706,244,–,–,–
"Cn1nc(C(=O)N2CCOCC2)c2c1-c1ccccc1S(=O)(=O)C2 [Example 34, 1-methyl-3-(morpholin-4-ylcarbonyl)-1,4-dihydrothiochromeno[4,3-c]pyrazole 5,5-dioxide]",1800,1750,–,–,–
"CCn1nc(C(=O)N2CCOCC2)c2c1-c1ccccc1S(=O)(=O)C2 [Example 37, 1-ethyl-3-(morpholin-4-ylcarbonyl)-1,4-dihydrothiochromeno[4,3-c]pyrazole 5,5-dioxide]",493,601,–,–,–
"COc1ccc(Cn2nc(C(=O)N3CCOCC3)c3c2-c2ccccc2S(=O)(=O)C3)cc1 [Example 38, 1-(4-methoxybenzyl)-3-(morpholin-4-ylcarbonyl)-1,4-dihydrothiochromeno[4,3-c]pyrazole 5,5-dioxide]",942,459,–,–,–
"CCCn1nc(C(=O)N2CCOCC2)c2c1-c1ccccc1S(=O)(=O)C2 [Example 39, 3-(morpholin-4-ylcarbonyl)-1-propyl-1,4-dihydrothiochromeno[4,3-c]pyrazole 5,5-dioxide]",388,641,–,–,–
O=c1cc(N2CCOCC2)oc2c(-c3ccccc3)cccc12 [LY294002],–,–,15000 to 20000,5000 to 10000,–
COC[C@H]1OC(=O)c2coc3c2[C@@]1(C)C1=C(C3=O)[C@@H]2CCC(=O)[C@@]2(C)C[C@H]1OC(C)=O [Wortmannin],–,–,–,–,1 to 10

# Further lines, with some results ahead:
IC50 [1] [nM],IC50 [2] [nM],Compound,IC50 (Class I PI3-kinases; read-out: IC50 against each of these PI3-kinases) [nM],IC50 (CK2 protein kinase) [nM],IC50 (Class I PI3-kinases; read-out: IC50 against each of the various Class I PI3-kinases) [nM]
128,40,"COCCN1CCC[C@H](n2nc(C(=O)N3CCOCC3)c3c2-c2ccccc2S(=O)(=O)C3)C1 (single isomer, unassigned) [Example 346, 1-[1-(2-methoxyethyl)piperidin-3-yl]-3-(morpholin-4-ylcarbonyl)-1,4-dihydrothiochromeno[4,3-c]pyrazole 5,5-dioxide]",–,–,–
40,16,"O=C(c1nn([C@H]2CCCN(CCN3CCOCC3)C2)c2c1CS(=O)(=O)c1c(F)cccc1-2)N1CCOCC1 (single isomer, unassigned) [Example 350, 6-fluoro-3-(morpholin-4-ylcarbonyl)-1-[1-(2-morpholin-4-ylethyl)piperidin-3-yl]-1,4-dihydrothiochromeno[4,3-c]pyrazole 5,5-dioxide hydrochloride salt]",–,–,–
94,52,"O=C(c1nn([C@H]2CCN(C3CCOCC3)C2)c2c1CS(=O)(=O)c1c(F)cccc1-2)N1CCOCC1 (single isomer, unassigned) [Example 355, 6-fluoro-3-(morpholin-4-ylcarbonyl)-1-[1-(tetrahydro-2H-pyran-4-yl)pyrrolidin-3-yl]-1,4-dihydrothiochromeno[4,3-c]pyrazole 5,5-dioxide hydrochloride salt]",–,–,–
888,104,"O=C(c1nn([C@@H]2CCCN(C3CCOCC3)CC2)c2c1CS(=O)(=O)c1ccccc1-2)N1CCOCC1 (single isomer, unassigned) [Example 400]",–,–,–
3630,340,"O=C(c1nn([C@H]2CCCN(C3CCOCC3)CC2)c2c1CS(=O)(=O)c1ccccc1-2)N1CCOCC1 (single isomer, unassigned) [Example 401]",–,–,–
214,45,"O=C(c1nn([C@@H]2CCN(C3CCOCC3)C2)c2c1CS(=O)(=O)c1ccccc1-2)N1CCOCC1 (single isomer, unassigned) [Example 403]",–,–,–
45,14,"O=C(c1nn([C@H]2CCCN(CCN3CCOCC3)C2)c2c1CS(=O)(=O)c1cc(F)ccc1-2)N1CCOCC1 (stereo in doubt) [Example 472, 7-fluoro-3-(morpholin-4-ylcarbonyl)-1-[1-(2-morpholin-4-ylethyl)piperidin-3-yl]-1,4-dihydrothiochromeno[4,3-c]pyrazole 5,5-dioxide]",–,–,–
534,–,"CC(C)(C)OC(=O)N1CCC(Cn2nc(C(=O)N3CCOCC3)c3c2-c2ccccc2S(=O)(=O)C3)CC1 [Example 43, tert-butyl 4-{[3-(morpholin-4-ylcarbonyl)-5,5-dioxidothiochromeno[4,3-c]pyrazol-1(4H)-yl]methyl}piperidine-1-carboxylate]",–,–,–
680,661,"O=C(c1nn(CCO)c2c1CS(=O)(=O)c1ccccc1-2)N1CCOCC1 [Example 46, 2-[3-(morpholin-4-ylcarbonyl)-5,5-dioxidothiochromeno[4,3-c]pyrazol-1(4H)-yl]ethanol]",–,–,–
8150,531,"O=C(c1nn(CC2CCNCC2)c2c1CS(=O)(=O)c1ccccc1-2)N1CCOCC1 [Example 56, 3-(morpholin-4-ylcarbonyl)-1-(piperidin-4-ylmethyl)-1,4-dihydrothiochromeno[4,3-c]pyrazole 5,5-dioxide]",–,–,–
251,368,"Nc1ccc2c(c1)-c1c(c(C(=O)N3CCOCC3)nn1-c1ccccc1)CS2(=O)=O [Example 65, 3-(Morpholin-4-ylcarbonyl)-1-phenyl-1,4-dihydrothiochromeno[4,3-c]pyrazol-8-amine 5,5-dioxide]",–,–,–
942,421,"CS(=O)(=O)NCc1ccc(-n2nc(C(=O)N3CCOCC3)c3c2-c2ccccc2S(=O)(=O)C3)cc1 [Example 66, N-{4-[3-(Morpholin-4-ylcarbonyl)-5,5-dioxidothiochromeno[4,3-c]pyrazol-1(4H)-yl]benzyl}methanesulfonamide]",–,–,–
317,205,"O=C(c1nn(C2CCCC2)c2c1CS(=O)(=O)c1ccccc1-2)N1CCOCC1 [Example 73, 1-Cyclopentyl-3-(morpholin-4-ylcarbonyl)-1,4-dihydrothiochromeno[4,3-c]pyrazole 5,5-dioxide]",–,–,–
492,437,"O=C(c1nn(C2CCCCC2)c2c1CS(=O)(=O)c1ncccc1-2)N1CCOCC1 [Example 79, 3-(Morpholin-4-ylcarbonyl)-1-cyclohexyl-1,4-dihydropyrazolo[3′,4′:4,5]thio pyrano[2,3-b]pyridine 5,5-dioxide]",–,–,–
300,–,O=C(c1nn(-c2ccc(CN3CCOCC3)cc2)c2c1CS(=O)(=O)c1ccccc1-2)N1CCOCC1 [Example 137],–,–,–
492,43,"CN(C)Cc1ccc(-n2nc(C(=O)N3CCOCC3)c3c2-c2ccccc2S(=O)(=O)C3)cc1 [Example 226, N,N-Dimethyl-1-{4-[3-(morpholin-4-ylcarbonyl)-5,5-dioxidothiochromeno[4,3-c]pyrazol-1(4H)-yl]phenyl}methanamine]",–,–,–
320,–,O=C(c1nn([C@H]2CCCN(CCF)C2)c2c1CS(=O)(=O)c1ncccc1-2)N1CCOCC1 [Example 380],–,–,–
